Test results: ChEMBL document CHEMBL1154508, “Discovery of GSK345931A: An EP(1) receptor antagonist with efficacy in preclinical models of inflammatory pain” (Bioorg Med Chem Lett, 2009)

Legend:
[1] = target: Prostaglandin F2-alpha receptor (Homo sapiens, UniProt P43088); assay: Activity at PGF2alpha receptor by FLIPR method
[2] = Solubility in fasted state simulated intestinal fluid after 2 hrs; format: physicochemical
[3] = Half life in rat at 1 mg/kg, iv; format: ADME, organism-based; parameters: dose 1 mg/kg, route intravenous; conditions: in vivo
[4] = Drug level in brain of complete Freund's adjuvant-induced rat inflammatory pain model at 3 mg/kg, po after 1 hr; format: ADME, organism-based; parameters: dose 3 mg/kg, route oral; conditions: read-out: Drug uptake
[5] = Solubility in fed state simulated intestinal fluid after 24 hrs; format: physicochemical
[6] = Volume of distribution at steady state in cynomolgus monkey at 1 mg/kg, iv; format: ADME, organism-based, Macaca fascicularis; parameters: dose 1 mg/kg, route intravenous; conditions: in vivo, read-out: Vdss
[7] = Drug level in brain of sub-chronic rat joint pain efficacy model treatment group at 5 mg/kg bid measured on day 5 after 1 hr post dose; format: ADME, organism-based; parameters: dose 5 mg/kg; conditions: read-out: Drug uptake
[8] = Solubility in fed state simulated intestinal fluid after 2 hrs; format: physicochemical
[9] = target: T1, Prostaglandin E2 receptor EP1 subtype (Homo sapiens, UniProt P34995); assay: Binding affinity to human EP1 receptor
T1 sequence (P34995 whole entry): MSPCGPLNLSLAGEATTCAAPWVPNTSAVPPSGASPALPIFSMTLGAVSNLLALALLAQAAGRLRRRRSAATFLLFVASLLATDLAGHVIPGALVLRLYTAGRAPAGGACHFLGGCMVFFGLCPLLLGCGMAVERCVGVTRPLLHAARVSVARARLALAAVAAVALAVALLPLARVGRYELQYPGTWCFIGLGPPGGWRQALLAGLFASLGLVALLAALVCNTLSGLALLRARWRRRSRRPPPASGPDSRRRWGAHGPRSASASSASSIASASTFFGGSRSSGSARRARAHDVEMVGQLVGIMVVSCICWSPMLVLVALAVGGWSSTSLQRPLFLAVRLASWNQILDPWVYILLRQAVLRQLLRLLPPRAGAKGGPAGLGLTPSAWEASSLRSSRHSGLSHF

[10] = Partition ratio of fraction unbound in rat brain to blood; format: ADME, tissue-based
[11] = Lipophilicity, log D at pH 7.4; format: physicochemical; conditions: buffer
[12] = Ratio of drug level in brain to blood in complete Freund's adjuvant-induced rat inflammatory pain model 3 mg/kg, po after 1 hr; format: ADME, organism-based; parameters: dose 3 mg/kg, route oral
[13] = Drug level in blood of sub-chronic rat joint pain efficacy model satellite animal group at 20 mg/kg bid measured on day 1 after 1 hr post dose; format: ADME, organism-based; parameters: dose 20 mg/kg; conditions: read-out: Drug uptake
[14] = target: T2, Thromboxane A2 receptor (Homo sapiens, UniProt P21731); assay: Activity at TP receptor by FLIPR method
T2 sequence (P21731 whole entry): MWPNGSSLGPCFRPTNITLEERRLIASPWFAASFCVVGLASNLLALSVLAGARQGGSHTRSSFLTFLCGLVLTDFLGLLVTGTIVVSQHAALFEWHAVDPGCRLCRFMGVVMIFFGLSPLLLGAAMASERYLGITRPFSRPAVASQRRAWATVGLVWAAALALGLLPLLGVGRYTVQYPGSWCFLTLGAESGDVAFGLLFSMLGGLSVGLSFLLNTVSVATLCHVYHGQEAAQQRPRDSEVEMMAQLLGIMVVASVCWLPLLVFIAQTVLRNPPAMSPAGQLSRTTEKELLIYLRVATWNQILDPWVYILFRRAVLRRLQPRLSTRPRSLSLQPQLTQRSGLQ

[15] = Drug level in mouse blood at 3 mg/kg, po after 0.5 hrs; format: ADME, organism-based; parameters: dose 3 mg/kg, route oral; conditions: read-out: Drug uptake
[16] = target: T3, Peroxisome proliferator-activated receptor alpha (Homo sapiens, UniProt Q07869); assay: Binding affinity to PPARalpha
T3 sequence (Q07869 whole entry): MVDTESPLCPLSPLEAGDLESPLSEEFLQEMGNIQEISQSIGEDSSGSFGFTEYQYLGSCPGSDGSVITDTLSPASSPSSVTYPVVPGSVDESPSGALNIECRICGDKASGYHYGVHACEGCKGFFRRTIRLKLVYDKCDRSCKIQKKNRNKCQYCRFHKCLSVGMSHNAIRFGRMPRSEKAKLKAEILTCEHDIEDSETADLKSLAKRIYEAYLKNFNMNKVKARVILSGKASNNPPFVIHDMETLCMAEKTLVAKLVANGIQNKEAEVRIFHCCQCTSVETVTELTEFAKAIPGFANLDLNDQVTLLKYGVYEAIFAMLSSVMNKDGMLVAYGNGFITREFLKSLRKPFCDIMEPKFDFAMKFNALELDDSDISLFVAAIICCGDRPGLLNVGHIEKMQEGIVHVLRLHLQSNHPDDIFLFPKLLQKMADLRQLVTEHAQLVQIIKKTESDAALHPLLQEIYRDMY

[17] = target: T4, Peroxisome proliferator-activated receptor gamma (Homo sapiens, UniProt P37231); assay: Binding affinity to PPARgamma
T4 sequence (P37231 whole entry): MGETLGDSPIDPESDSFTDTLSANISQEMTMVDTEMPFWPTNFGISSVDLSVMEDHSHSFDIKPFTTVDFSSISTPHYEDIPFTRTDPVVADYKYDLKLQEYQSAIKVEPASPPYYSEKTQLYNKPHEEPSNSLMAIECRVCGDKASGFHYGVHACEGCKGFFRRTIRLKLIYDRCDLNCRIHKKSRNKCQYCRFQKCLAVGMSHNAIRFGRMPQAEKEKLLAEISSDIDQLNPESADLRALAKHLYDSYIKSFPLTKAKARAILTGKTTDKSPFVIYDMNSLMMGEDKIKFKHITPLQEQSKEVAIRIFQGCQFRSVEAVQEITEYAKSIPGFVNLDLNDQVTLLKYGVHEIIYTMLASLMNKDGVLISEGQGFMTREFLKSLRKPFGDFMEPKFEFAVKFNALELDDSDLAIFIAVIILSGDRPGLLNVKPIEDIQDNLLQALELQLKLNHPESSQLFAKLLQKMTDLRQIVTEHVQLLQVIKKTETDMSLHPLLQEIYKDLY

[18] = target: T5, Prostaglandin E2 receptor EP3 subtype (Homo sapiens, UniProt P43115); assay: Activity at EP3 receptor by FLIPR method
T5 sequence (P43115 whole entry): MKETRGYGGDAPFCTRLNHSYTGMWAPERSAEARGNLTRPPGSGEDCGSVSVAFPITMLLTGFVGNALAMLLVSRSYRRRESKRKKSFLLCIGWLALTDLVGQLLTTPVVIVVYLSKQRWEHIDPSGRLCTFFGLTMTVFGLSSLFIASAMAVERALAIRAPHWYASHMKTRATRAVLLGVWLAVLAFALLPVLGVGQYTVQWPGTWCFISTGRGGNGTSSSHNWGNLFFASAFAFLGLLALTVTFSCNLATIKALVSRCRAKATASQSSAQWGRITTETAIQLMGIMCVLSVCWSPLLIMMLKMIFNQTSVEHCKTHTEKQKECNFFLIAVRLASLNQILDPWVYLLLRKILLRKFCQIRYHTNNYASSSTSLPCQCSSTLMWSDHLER

[19] = Drug level in brain of complete Freund's adjuvant-induced rat inflammatory pain model at 10 mg/kg, po after 1 hr; format: ADME, organism-based; parameters: dose 10 mg/kg, route oral; conditions: read-out: Drug uptake
[20] = Aqueous solubility in water after 24 hrs; format: physicochemical
[21] = Drug level in blood of complete Freund's adjuvant-induced rat inflammatory pain model at 3 mg/kg, po after 1 hr; format: ADME, organism-based; parameters: dose 3 mg/kg, route oral; conditions: read-out: Drug uptake

Chain of Prostaglandin F2-alpha receptor (P43088 whole entry): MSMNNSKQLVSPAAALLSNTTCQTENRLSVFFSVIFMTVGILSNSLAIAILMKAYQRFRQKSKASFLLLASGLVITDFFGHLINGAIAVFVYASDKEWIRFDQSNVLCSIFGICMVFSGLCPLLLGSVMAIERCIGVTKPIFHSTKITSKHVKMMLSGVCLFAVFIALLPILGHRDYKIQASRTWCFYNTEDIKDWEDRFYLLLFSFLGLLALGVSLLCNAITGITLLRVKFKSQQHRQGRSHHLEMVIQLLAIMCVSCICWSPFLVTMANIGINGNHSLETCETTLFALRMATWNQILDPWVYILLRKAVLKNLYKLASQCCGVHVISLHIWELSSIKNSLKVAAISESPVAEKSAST

SMILES: CC(C)COc1ccc(Cl)cc1-c1ccccc1-c1cccc(C(=O)[O-])n1.[Na+]
- IC50 [1]: > 10000 nM
- solubility at 2 h [2]: 1030 µg/mL
- half-life [3]: 3.5 h
- concentration at 1 h [4]: 1480 nM
- solubility at 24 h [5]: 1140 µg/mL
- Vd [6]: 0.5 L/kg
- concentration at 1 h [7]: 1070 nM
- solubility at 2 h [8]: 1220 µg/mL
- IC50 [9]: 16 nM
- Kbb [10]: 0.93
- logD [11]: 1.9
- Kp at 1 h [12]: 0.72
- concentration at 1 h [13]: 25900 nM
- IC50 [14]: 1580 nM
- concentration at 0.5 h [15]: 1120 nM
- Ki [16]: > 20000 nM
- Ki [17]: 12600 nM
- Ki [18]: 2000 nM
- concentration at 1 h [19]: 7260 nM
- solubility at 24 h [20]: 612 µg/mL
- concentration at 1 h [21]: 3330 nM
